# Measurements: patent US20090221433A1, “SMALL MOLECULE PRINTING” (priority 2006, published 2009)
# Legend:
# [1] = test system: anti-17β-estradiol antibody; test: Bioactive microarray binding profile, anti-17β-estradiol antibody; set-up: species or system rabbit; conditions: anti-17β-estradiol then labeled secondary antibody; replicate arrays
# Description: (§1) To investigate the suitability of our approach for printing compounds that have not been intentionally synthesized with appendages for covalent capture, more than 300 commercially available bioactive compounds were printed onto isocyanate-functionalized slides. We screened these bioactive microarrays using rabbit primary antibodies against corticosterone, digitoxin, and 17β-estradiol, followed by a fluor-labeled goat anti-rabbit secondary antibody. The signal-to-noise ratio (SNR) was determined by calculating intensity at 635 nm and adjusting for local background for each feature on replicate arrays, and data were compared to replicate control arrays incubated with the labeled secondary antibody alone (FIG. 4). […] In the anti-corticosterone antibody binding profile, hydrocortisone (mean SNR 68.9), beclomethasone (63.3), and corticosterone (59.2), corticosteroids related in structure, scored as positives. […] 17β-estradiol (mean SNR 9.0), estriol (8.7) and estrone (7.3), primary estrogenic hormones varying in the number of reactive groups for capture, scored as positives in the anti-17β-estradiol binding profile.
# (§2) Small-molecule microarray profiles with antibodies against natural products. […] Arrays were dried by centrifugation and scanned for fluorescence at 635 nm. Signal-to-noise ratio was calculated for each feature using adjusted diameters.
# [2] = test system: anti-digitoxin antibody; test: Bioactive microarray binding profile, anti-digitoxin antibody; set-up: species or system rabbit; conditions: anti-digitoxin then labeled secondary antibody; replicate arrays
# Description: We screened these bioactive microarrays using rabbit primary antibodies against corticosterone, digitoxin, and 17β-estradiol, followed by a fluor-labeled goat anti-rabbit secondary antibody. The signal-to-noise ratio (SNR) was determined by calculating intensity at 635 nm and adjusting for local background for each feature on replicate arrays, and data were compared to replicate control arrays incubated with the labeled secondary antibody alone (FIG. 4).
# Microarrays printed with natural products and bioactives were incubated with various antibodies to detect specific compounds. In the first incubation step, arrays were incubated with 300 μL of one of the following: PBST buffer (control), a 1:500 solution of rabbit anti-corticosterone whole antiserum in PBST, 1:500 solution of rabbit anti-17β-estradiol whole antiserum in PBST for 30 min at room temperature. The arrays were briefly rinsed with PBST and then washed twice in PBST. All arrays were then incubated with 300 μL of a 1:1000 solution of Alexa Fluor® 647 […] polyclonal secondary antibody in PBST for 30 min at room temperature. Probed arrays were rinsed in PBST, washed three times in PBST, and washed once in PBS. Arrays were dried by centrifugation and scanned for fluorescence at 635 nm. Signal-to-noise ratio was calculated for each feature using adjusted diameters.
# [3] = test system: Alexa Fluor 647 goat-anti-rabbit IgG; test: Bioactive microarray control, labeled secondary antibody alone; assay type: binding; conditions: labeled polyclonal secondary antibody alone
# Description: as §1, §2
# [4] = test system: anti-corticosterone antibody; test: Bioactive microarray binding profile, anti-corticosterone antibody; conditions: anti-corticosterone then Alexa Fluor 647 goat-anti-rabbit; replicate arrays
# Description: as §1, with “4). Six bioactives, with signal-to-noise ratios>3.0, were found in replicate arrays to bind to the labeled polyclonal secondary antibody alone. None of the compounds were autofluorescent at 635 nm as judged by arrays probed with PBS buffer alone (data not shown). Hygromycin B, an aminoglycoside antibiotic, gave the highest adjusted signal-to-noise ratio (mean SNR 47.6).” for “4).”
# as §2, with “products. Microarrays printed with natural products and bioactives were incubated with various antibodies to detect specific compounds.” for “products.”
# [5] = biological target: FKBP12 (Homo sapiens, UniProt P62942); conditions: affinity of AP1497 for FKBP12; cited from earlier work
# [6] = biological target: T1, FKBP12-6xHis (Homo sapiens, UniProt P62942); conditions: Table 1; cited from earlier work
# T1 construct: made in house
# T1 sequence (P62942 whole entry): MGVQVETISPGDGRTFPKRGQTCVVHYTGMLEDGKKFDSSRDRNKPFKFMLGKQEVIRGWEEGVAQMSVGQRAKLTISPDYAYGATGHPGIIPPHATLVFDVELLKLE
# FKBP12, sequence (P62942 whole entry, species assumed): as the sequence (P62942 whole entry) above
molecule,measurement,setting,value
C[C@]12CC[C@@H]3c4ccc(O)cc4CC[C@H]3[C@@H]1CC[C@@H]2O [17β-estradiol],mean SNR (signal-to-noise ratio at 635 nm),[1],9.0
C[C@]12CC[C@H](O)C[C@H]1CC[C@@H]1[C@@H]2CC[C@]2(C)[C@@H](C3=CC(=O)OC3)[C@@H](O)C[C@]12O [Gitoxigenin],mean SNR (signal-to-noise ratio at 635 nm),[2],62.5
CN[C@H]1C[C@@H](N)[C@H](O)[C@@H](O[C@@H]2O[C@H](CO)[C@H](O)[C@@H]3OC4(O[C@H]23)O[C@H]([C@@H](N)CO)[C@H](O)[C@H](O)[C@H]4O)[C@@H]1O (stereo partly drawn) [Hygromycin B],adjusted signal-to-noise ratio (mean SNR),[3],47.6
C[C@H]1C[C@H]2[C@@H]3CCC4=CC(=O)C=C[C@]4(C)[C@@]3(Cl)[C@@H](O)C[C@]2(C)[C@@]1(O)C(=O)CO [beclomethasone],mean SNR (signal-to-noise ratio at 635 nm),[4],63.3
C[C@@H]1O[C@@H](O[C@H]2CC[C@]3(C=O)[C@H]4CC[C@]5(C)[C@@H](C6=CC(=O)OC6)CC[C@]5(O)[C@@H]4CC[C@]3(O)C2)[C@H](O)[C@H](O)[C@H]1O [convallatoxin],mean SNR (signal-to-noise ratio at 635 nm),[2],52.7
C[C@]12C[C@H](O)[C@H]3[C@@H](CCC4=CC(=O)CC[C@@]43C)[C@@H]1CC[C@@H]2C(=O)CO [corticosterone],mean SNR (signal-to-noise ratio at 635 nm),[4],59.2
C[C@H]1O[C@@H](O[C@H]2[C@@H](O)C[C@H](O[C@H]3[C@@H](O)C[C@H](O[C@H]4CC[C@@]5(C)[C@H](CC[C@@H]6[C@@H]5CC[C@]5(C)[C@@H](C7=CC(=O)OC7)CC[C@]65O)C4)O[C@@H]3C)O[C@@H]2C)C[C@H](O)[C@@H]1O [digitoxin],mean SNR (signal-to-noise ratio at 635 nm),[2],15.1
C[C@]12CC[C@@H]3c4ccc(O)cc4CC[C@H]3[C@@H]1C[C@@H](O)[C@@H]2O [estriol],mean SNR (signal-to-noise ratio at 635 nm),[1],8.7
C[C@]12CCC(=O)C=C1CC[C@@H]1[C@@H]2[C@@H](O)C[C@@]2(C)[C@H]1CC[C@]2(O)C(=O)CO [hydrocortisone],mean SNR (signal-to-noise ratio at 635 nm),[4],68.9
CC(=O)O[C@H]1C[C@H](O[C@H]2[C@@H](O)C[C@H](O[C@H]3[C@@H](O)C[C@H](O[C@H]4CC[C@@]5(C)[C@H](CC[C@@H]6[C@@H]5C[C@@H](O)[C@]5(C)[C@@H](C7=CC(=O)OC7)CC[C@]65O)C4)O[C@@H]3C)O[C@@H]2C)O[C@H](C)[C@H]1O[C@@H]1O[C@H](CO)[C@@H](O)[C@H](O)[C@H]1O [lanatoside C],mean SNR (signal-to-noise ratio at 635 nm),[2],24.0
AP1497,Kd,[5],8.8 nM
same,Kd,[6],18 nM
